Assay [1] has as its target human vasopressin-2 receptor (V2R) (Homo sapiens, UniProt P30518). Briefly: biochemical. The assay is classed as binding.
In another assay the target is Tryptase b2 (Homo sapiens, UniProt P20231). Briefly: biochemical.
A further assay deals with Plasma Kallikrein (Homo sapiens, UniProt P03952). In words: biochemical.
In another assay the target is Matriptase 2 (Homo sapiens, UniProt Q8IU80). In words: biochemical.
The next assay concerns the target Thrombin A (Homo sapiens, UniProt P00734). The assay is classed as biochemical. To be noted: read-out: Compound IC50.
For the next assay, the target named is Kallikrein 14 (Homo sapiens, UniProt Q9P0G3). The assay is classed as biochemical. To be noted: read-out: Compound IC50.
Another assay addresses Urokinase (Homo sapiens, UniProt P00749). Format: biochemical. To be noted: read-out: Compound IC50.
A further assay concerns the target Trypsin (Bos taurus, UniProt P00760). Briefly: biochemical. On the set-up: species or system Bovine.
A further assay addresses Kallikrein 12 (Homo sapiens, UniProt Q9UKR0). Format: biochemical. To be noted: read-out: Compound IC50.
For another assay, the target named is Elastase (Homo sapiens, UniProt P08246). Briefly: biochemical.
Sequence of Elastase (P08246 30-247): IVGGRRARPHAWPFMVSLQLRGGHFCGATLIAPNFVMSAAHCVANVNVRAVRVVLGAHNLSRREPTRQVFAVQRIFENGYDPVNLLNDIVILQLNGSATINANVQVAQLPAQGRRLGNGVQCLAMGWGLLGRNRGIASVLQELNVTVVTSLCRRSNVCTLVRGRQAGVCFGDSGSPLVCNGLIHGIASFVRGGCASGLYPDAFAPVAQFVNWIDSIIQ
For another assay, the target named is Kallikrein 13 (Homo sapiens, UniProt Q9UKR3). The assay is classed as biochemical. To be noted: read-out: Compound IC50.
The target of a further assay is Kallikrein 5 (Homo sapiens, UniProt Q9Y337). In words: biochemical.
A further assay deals with FXa (Homo sapiens, UniProt P00742). The assay is classed as biochemical. To be noted: read-out: Compound IC50.
The next assay addresses Tryptase g1. Format: biochemical, Human. The following applies: read-out: Compound IC50.
A further assay deals with Plasmin (Homo sapiens, UniProt P00747). Format: biochemical. The following applies: read-out: Compound IC50.
For a further assay, the target named is Kallikrein 7 (Homo sapiens, UniProt P49862). Briefly: biochemical.
Sequence of Kallikrein 7 (P49862 30-252): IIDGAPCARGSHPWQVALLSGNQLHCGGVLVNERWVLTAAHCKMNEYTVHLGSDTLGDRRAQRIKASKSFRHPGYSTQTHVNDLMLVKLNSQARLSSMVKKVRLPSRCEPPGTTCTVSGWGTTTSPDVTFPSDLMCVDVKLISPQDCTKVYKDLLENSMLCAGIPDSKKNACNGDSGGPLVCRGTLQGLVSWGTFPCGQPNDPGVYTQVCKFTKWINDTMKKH
For the next assay, the system named is V2R versus V1a. The following applies: cited from earlier work.
A further assay has as its target Cathepsin G (Homo sapiens, UniProt P08311). In words: biochemical.
The target of a further assay is Chymase (Homo sapiens, UniProt P23946). Briefly: biochemical.
Sequence of Chymase (P23946 22-247): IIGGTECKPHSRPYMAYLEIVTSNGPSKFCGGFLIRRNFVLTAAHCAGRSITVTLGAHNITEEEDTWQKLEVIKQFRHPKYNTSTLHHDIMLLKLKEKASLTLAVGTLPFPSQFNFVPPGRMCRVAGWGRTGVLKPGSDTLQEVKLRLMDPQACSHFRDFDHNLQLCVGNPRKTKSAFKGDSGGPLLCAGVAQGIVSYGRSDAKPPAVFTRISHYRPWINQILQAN
The next assay addresses Caspase 6 (Homo sapiens, UniProt P55212). Briefly: biochemical.
For a further assay, the target named is Caspase 10 (Homo sapiens, UniProt Q92851). Briefly: biochemical.
Sequence of Caspase 10 (Q92851-2 with tags, fused parts or gaps limits assumed): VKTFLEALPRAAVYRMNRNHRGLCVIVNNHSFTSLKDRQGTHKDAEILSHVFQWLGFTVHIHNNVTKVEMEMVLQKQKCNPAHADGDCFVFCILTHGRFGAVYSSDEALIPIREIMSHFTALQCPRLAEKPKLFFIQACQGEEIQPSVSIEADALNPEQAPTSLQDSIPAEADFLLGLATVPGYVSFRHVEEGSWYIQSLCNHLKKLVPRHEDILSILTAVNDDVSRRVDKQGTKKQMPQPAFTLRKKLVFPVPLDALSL
A further assay addresses Cathepsin C (Homo sapiens, UniProt P53634). Briefly: biochemical.
Another assay addresses Chymotrypsin (Bos taurus, UniProt P00766). In words: biochemical. On the set-up: species or system Bovine.
For a further assay, the target named is Caspase 9 (Homo sapiens, UniProt P55211). In words: biochemical.
Sequence of Caspase 9 (P55211 131-416): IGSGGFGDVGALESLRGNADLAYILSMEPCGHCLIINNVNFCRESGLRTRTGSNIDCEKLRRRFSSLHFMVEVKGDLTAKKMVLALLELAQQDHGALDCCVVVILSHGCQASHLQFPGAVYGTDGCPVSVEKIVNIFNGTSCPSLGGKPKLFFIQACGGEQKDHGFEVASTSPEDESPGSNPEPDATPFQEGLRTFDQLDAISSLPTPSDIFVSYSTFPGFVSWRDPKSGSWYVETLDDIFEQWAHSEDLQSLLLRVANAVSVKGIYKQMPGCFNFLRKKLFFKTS
The target of assay [2] is human Arginine Vasopressin Receptor 2A (AVPR2A) (Homo sapiens, UniProt P30518). Briefly: cell-based.
For assay [3], the system named is 156 other GPCRs, including V1aR, V1bR and OTR. To be noted: cited from earlier work.
A further assay deals with Caspase 1 (Homo sapiens, UniProt P29466). Briefly: biochemical.
The next assay addresses Caspase 5 (Homo sapiens, UniProt P51878). Briefly: biochemical.
In another assay the target is Caspase 2 (Homo sapiens, UniProt P42575). In words: biochemical.
Sequence of Caspase 2 (P42575 167-333): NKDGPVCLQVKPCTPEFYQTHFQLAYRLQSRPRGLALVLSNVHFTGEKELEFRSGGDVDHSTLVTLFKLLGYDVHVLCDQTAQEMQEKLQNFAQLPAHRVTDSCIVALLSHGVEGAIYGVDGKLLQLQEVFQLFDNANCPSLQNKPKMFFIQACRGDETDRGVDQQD
Sequence of Caspase 2 (P42575 348-452): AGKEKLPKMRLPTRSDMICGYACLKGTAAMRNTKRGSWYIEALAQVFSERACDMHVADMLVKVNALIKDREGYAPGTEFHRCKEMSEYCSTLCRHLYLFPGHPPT
The next assay concerns the target Papain (Carica papaya, UniProt P00784). In words: biochemical.
The target in a further assay is Caspase 11 (Mus musculus, UniProt P70343). In words: biochemical.
Sequence of Caspase 11 (P70343 102-373): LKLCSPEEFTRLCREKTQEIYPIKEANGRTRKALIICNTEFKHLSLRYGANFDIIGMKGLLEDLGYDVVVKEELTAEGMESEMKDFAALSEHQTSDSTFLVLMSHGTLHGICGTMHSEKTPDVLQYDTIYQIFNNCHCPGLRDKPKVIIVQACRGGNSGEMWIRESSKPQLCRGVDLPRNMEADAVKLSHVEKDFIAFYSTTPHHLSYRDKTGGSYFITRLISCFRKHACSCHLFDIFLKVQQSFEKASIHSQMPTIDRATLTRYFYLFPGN
The next assay addresses Cathepsin H (Homo sapiens, UniProt P09668). The assay is classed as biochemical. To be noted: read-out: Compound IC50.
In another assay the target is Cathepsin B (Homo sapiens, UniProt P07858). The assay is classed as biochemical. To be noted: read-out: Compound IC50.
For the next assay, the target named is Cathepsin S (Homo sapiens, UniProt P25774). The assay is classed as biochemical. To be noted: read-out: Compound IC50.
The target in the next assay is Cathepsin L (Homo sapiens, UniProt P07711). The assay is classed as biochemical. To be noted: read-out: Compound IC50.
A further assay deals with Cathepsin V (Homo sapiens, UniProt O60911). Format: biochemical. The following applies: read-out: Compound IC50.
In another assay the target is Kallikrein 1 (Homo sapiens, UniProt P06870). Briefly: biochemical.
The target in the next assay is Proteinase A (Bacillus licheniformis, UniProt P00780). In words: biochemical. On the set-up: species or system Bacillus Iicheniformis.
Another assay addresses Caspase 4 (Homo sapiens, UniProt P49662). The assay is classed as biochemical. The following applies: read-out: Compound IC50.
The target in another assay is Caspase 8 (Homo sapiens, UniProt Q14790). Format: biochemical. The following applies: read-out: Compound IC50.
For another assay, the target named is Caspase 7 (Homo sapiens, UniProt P55210). The assay is classed as biochemical. The following applies: read-out: Compound IC50.
For assay [4], the system named is DDAVP-induced hyponatremia in Sprague-Dawley rats. The following applies: rat, in vivo.

Like-named read-outs stand apart in the source and are kept apart here. Bridge positions count the residues as written; N and C are the ends. Ends that are not written are not given here. Peptide text beside a SMILES is read from it.

Data on 15 molecules can be found in patent US12595288B2 (priority 2020, dated 2026).

Sequence of human vasopressin-2 receptor (V2R) (P30518 whole entry): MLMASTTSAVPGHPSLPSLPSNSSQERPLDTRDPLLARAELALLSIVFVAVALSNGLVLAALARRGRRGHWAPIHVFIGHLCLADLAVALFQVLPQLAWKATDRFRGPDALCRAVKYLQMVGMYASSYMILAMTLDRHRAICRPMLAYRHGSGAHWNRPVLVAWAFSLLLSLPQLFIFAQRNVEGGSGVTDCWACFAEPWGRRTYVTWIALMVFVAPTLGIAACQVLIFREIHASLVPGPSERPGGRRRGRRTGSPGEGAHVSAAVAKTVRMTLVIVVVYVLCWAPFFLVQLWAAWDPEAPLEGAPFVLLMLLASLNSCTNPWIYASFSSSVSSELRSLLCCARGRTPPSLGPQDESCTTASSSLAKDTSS
Sequence of Cathepsin G (P08311 21-244): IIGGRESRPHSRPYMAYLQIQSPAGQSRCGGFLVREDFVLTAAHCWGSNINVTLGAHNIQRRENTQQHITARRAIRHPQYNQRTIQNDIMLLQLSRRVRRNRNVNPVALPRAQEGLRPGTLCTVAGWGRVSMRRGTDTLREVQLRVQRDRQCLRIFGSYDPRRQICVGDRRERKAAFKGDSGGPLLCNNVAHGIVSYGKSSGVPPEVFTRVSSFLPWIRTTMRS
Sequence of Caspase 5 (P51878 347-434): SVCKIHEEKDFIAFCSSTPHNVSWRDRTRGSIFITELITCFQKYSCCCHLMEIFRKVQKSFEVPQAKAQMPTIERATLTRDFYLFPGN
Sequence of Caspase 5 (P51878 138-327): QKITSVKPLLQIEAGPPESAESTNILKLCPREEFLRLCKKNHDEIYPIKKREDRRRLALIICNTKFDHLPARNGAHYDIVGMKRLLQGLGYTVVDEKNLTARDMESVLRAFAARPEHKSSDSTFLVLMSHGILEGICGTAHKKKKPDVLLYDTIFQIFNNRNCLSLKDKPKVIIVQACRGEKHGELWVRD
Sequence of Trypsin (P00760 24-246): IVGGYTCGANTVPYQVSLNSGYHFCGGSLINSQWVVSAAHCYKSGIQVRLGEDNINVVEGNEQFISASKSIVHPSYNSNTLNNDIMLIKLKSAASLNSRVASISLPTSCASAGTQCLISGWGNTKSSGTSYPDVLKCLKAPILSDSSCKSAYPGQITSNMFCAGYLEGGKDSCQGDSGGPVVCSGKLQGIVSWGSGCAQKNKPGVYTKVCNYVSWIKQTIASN
Sequence of Plasma Kallikrein (P03952 20-390): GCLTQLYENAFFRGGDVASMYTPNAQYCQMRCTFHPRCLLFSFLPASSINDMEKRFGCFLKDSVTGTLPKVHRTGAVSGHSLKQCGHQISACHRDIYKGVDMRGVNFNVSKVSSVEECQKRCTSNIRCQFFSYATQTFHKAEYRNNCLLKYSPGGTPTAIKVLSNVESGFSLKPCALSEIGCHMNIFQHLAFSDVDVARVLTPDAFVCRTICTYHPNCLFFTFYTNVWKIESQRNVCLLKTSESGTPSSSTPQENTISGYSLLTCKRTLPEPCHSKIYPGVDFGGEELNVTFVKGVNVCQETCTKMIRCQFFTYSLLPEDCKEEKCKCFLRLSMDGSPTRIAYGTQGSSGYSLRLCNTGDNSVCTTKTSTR
Sequence of Plasma Kallikrein (P03952 391-638): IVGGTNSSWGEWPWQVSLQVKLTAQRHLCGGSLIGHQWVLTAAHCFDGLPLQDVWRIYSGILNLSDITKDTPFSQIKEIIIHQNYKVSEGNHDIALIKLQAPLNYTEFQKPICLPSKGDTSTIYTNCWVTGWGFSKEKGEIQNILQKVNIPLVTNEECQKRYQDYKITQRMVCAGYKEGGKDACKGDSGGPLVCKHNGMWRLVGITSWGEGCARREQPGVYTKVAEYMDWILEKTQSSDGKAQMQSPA
Sequence of Cathepsin C (P53634 25-143): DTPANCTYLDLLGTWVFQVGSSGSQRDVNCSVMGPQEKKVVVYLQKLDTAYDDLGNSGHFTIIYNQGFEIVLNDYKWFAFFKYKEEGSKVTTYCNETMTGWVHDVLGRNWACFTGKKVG
Sequence of Cathepsin C (P53634 231-394): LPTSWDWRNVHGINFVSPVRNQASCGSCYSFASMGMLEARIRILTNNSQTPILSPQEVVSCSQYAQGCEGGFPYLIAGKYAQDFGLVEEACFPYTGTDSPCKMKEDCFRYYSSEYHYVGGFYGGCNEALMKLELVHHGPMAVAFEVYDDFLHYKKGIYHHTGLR
Sequence of Cathepsin C (P53634 395-463): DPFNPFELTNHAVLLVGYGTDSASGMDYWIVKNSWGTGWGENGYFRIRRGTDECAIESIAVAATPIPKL
Sequence of Matriptase 2 (Q8IU80 78-811): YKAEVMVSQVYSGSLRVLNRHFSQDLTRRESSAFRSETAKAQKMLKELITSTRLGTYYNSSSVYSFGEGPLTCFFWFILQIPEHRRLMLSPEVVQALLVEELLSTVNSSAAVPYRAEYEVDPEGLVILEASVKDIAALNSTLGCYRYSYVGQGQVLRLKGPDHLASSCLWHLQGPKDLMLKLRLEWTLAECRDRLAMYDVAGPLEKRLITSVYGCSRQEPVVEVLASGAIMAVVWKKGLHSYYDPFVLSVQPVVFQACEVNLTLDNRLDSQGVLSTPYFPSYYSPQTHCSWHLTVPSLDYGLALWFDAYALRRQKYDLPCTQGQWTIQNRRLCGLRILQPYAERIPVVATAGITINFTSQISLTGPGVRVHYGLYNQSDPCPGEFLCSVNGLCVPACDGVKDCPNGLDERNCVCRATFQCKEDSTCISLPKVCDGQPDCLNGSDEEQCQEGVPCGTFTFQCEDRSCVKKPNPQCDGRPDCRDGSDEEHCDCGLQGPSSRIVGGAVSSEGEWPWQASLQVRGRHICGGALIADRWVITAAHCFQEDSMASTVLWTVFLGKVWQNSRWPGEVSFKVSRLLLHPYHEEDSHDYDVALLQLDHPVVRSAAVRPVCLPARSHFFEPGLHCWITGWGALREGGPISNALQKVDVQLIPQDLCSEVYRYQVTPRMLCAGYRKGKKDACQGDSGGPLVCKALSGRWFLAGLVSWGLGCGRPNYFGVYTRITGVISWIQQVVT

In assay [1], “RPSFCNLPVKPGPCNGFFSAFYYSQKTNKCHSFTYGGCKGAANRFSTIEKCRRTCVG (disulfide 5-55, 14-38, 30-51) [N41A]” yielded an inhibitory constant (Ki) of 8.49 nM.

Regarding “Gabexate mesylate [Gabexate mesylate (GM)]”, the IC50 at Tryptase b2 (read-out: Compound IC50) is 19.8 nM; at Plasma Kallikrein (read-out: Compound IC50), 30.3 nM; at Matriptase 2 (read-out: Compound IC50) it was 315 nM; at Thrombin A, 3160 nM; on Kallikrein 14 it was 672 nM; on Urokinase, 614 nM. The IC50 at Trypsin (read-out: Compound IC50) amounted to 11.2 nM; on Kallikrein 12, 65.4 nM; on Elastase (read-out: Compound IC50) it was 216 nM; on Kallikrein 13, 11800 nM; on Kallikrein 5 (read-out: Compound IC50) it was 697 nM; at FXa it was 4470 nM. Also, the IC50 on Tryptase g1 was 10.1 nM; on Plasmin it was 344 nM; at Kallikrein 7 (read-out: Compound IC50), 46500 nM.

`Cc1nc2c([nH]1)-c1ccccc1N(C(=O)c1ccc(NC(=O)c3ccccc3-c3ccccc3)cc1)CC2` [Conivaptan]: the V2/Vla selectivity index in the assay on V2R versus V1a is on record as 0.15.

In the case of `CC(C)C[C@H](NC(=O)[C@@H](NC(=O)N[C@@H](Cc1ccccc1)C(=O)O)[C@@H]1CCN=C(N)N1)C(=O)N[C@H](C=O)Cc1ccccc1` [Chymostatin], the IC50 on Cathepsin G worked out at 236 nM; against Chymase it was 19.9 nM.

`CCOc1ccc2c(c1)C1(CCC(OCCN3CCOCC3)CC1)C(=O)N2S(=O)(=O)c1ccc(C(=O)NC(C)(C)C)cc1OC` (stereo not drawn) [Satavaptan]: the V2/Vla selectivity index in the assay on V2R versus V1a was 112.

For the molecule `CC[C@H](C)[C@@H]1NC(=O)[C@H]([C@@H](C)O)NC(=O)[C@H](CO)NC(=O)[C@H](Cc2ccccc2)NC(=O)[C@H](CCCNC(=N)N)NC(=O)[C@H](CC(N)=O)NC(=O)[C@H](C)NC(=O)[C@H](CC(N)=O)NC(=O)CNC(=O)[C@H](CCCCN)NC(=O)[C@@H]2CSSC[C@@H]3NC(=O)[C@@H]4CCCN4C(=O)CNC(=O)[C@@H]4CCCN4C(=O)[C@H](CCCCN)NC(=O)[C@H](C(C)C)NC(=O)[C@@H]4CCCN4C(=O)[C@H](CC(C)C)NC(=O)[C@H](CC(N)=O)NC(=O)[C@@H](NC(=O)[C@H](Cc4ccccc4)NC(=O)[C@H](CO)NC(=O)[C@@H]4CCCN4C(=O)[C@@H](N)CCCNC(=N)N)CSSC[C@@H](C(=O)N[C@H](C(=O)NCC(=O)O)C(C)C)NC(=O)[C@H]([C@@H](C)O)NC(=O)[C@H](CCCNC(=N)N)NC(=O)[C@H](CCCNC(=N)N)NC(=O)[C@H](CSSC[C@H](NC(=O)[C@H](CCCCN)NC(=O)[C@H](CC(N)=O)NC(=O)[C@H]([C@@H](C)O)NC(=O)[C@H](CCCCN)NC(=O)[C@H](CCC(N)=O)NC(=O)[C@H](CO)NC(=O)[C@H](Cc4ccc(O)cc4)NC(=O)[C@H](Cc4ccc(O)cc4)NC(=O)[C@H](Cc4ccccc4)NC(=O)[C@H](C)NC(=O)[C@H](CO)NC(=O)[C@H](Cc4ccccc4)NC(=O)[C@H](Cc4ccccc4)NC(=O)CNC(=O)[C@H](CC(N)=O)NC3=O)C(=O)N[C@@H](Cc3c[nH]cn3)C(=O)N[C@@H](CO)C(=O)N[C@@H](Cc3ccccc3)C(=O)N[C@@H]([C@@H](C)O)C(=O)N[C@@H](Cc3ccc(O)cc3)C(=O)NCC(=O)NCC(=O)N2)NC(=O)[C@H](CCCCN)NC(=O)[C@H](CCC(=O)O)NC1=O` [WT MQ1 peptide, mambaquaretin], the IC50 against Caspase 6 was over 50000 nM; on Caspase 10, 9330 nM; against Tryptase b2, 3630 nM; against Plasma Kallikrein, 3890 nM; at Matriptase 2, 116 nM; against Cathepsin C it was 45900 nM. The half-maximal inhibitory concentration (IC50) on Trypsin was 3690 nM; at Cathepsin G, 8540 nM; on Elastase it was over 50000 nM; on Chymase it was 18200 nM; against Chymotrypsin, 2740 nM; against Kallikrein 5, 5770 nM. Moreover, the concentration for half-maximal inhibition (IC50) against Caspase 9 was 8940 nM; in [2], 192 nM; on Caspase 1, 37100 nM; against Caspase 5, over 50000 nM; against Caspase 2, 42500 nM; on Tryptase g1 it was over 50000 nM. The IC50 was 17600 nM against Papain, 14000 nM against Caspase 11 and 3650 nM against Kallikrein 7. Also, the “affinity for 156 other GPCRs” value in assay [3] was “no affinity at μM concentrations”.

In the case of `CC(C)C[C@H](NC(=O)[C@H]1O[C@@H]1C(=O)O)C(=O)NCCCCN=C(N)N` [E64], the IC50 at Cathepsin H worked out at 67.1 nM; on Cathepsin B, 5.1 nM; at Cathepsin C (read-out: Compound IC50), 590 nM; on Cathepsin S it was 5.43 nM; at Cathepsin L it was 1.96 nM; on Cathepsin V, 19.7 nM. Moreover, the IC50 at Papain (read-out: Compound IC50) worked out at 0.118 nM.

As to `CC(=O)N[C@@H](CC(C)C)C(=O)N[C@@H](CC(C)C)C(=O)N[C@H](C=O)CCCNC(=N)N` [Leupeptin], the concentration for half-maximal inhibition (IC50) against Kallikrein 1 came out at 296 nM; against Proteinase A, 31500 nM.

With `CC[C@H](C)[C@H](NC(C)=O)C(=O)N[C@@H](CCC(=O)O)C(=O)N[C@H](C(=O)N[C@H](C=O)CC(=O)O)[C@@H](C)O` [IETD-CHO] (Ac-IETD-aldehyde), the 50% inhibitory concentration (IC50) at Caspase 10 (read-out: Compound IC50) amounted to 28.3 nM; at Caspase 4, 2180 nM; on Caspase 9 (read-out: Compound IC50), 51.5 nM; on Caspase 1 (read-out: Compound IC50), 89.3 nM; at Caspase 8 it was 2.52 nM; on Caspase 5 (read-out: Compound IC50), 38.3 nM. For the same molecule, the IC50 on Caspase 2 (read-out: Compound IC50) is 646 nM; on Caspase 11 (read-out: Compound IC50), 934 nM.

On to `CC(=O)N[C@@H](CC(=O)O)C(=O)N[C@@H](CCC(=O)O)C(=O)N[C@H](C(=O)N[C@H](C=O)CC(=O)O)C(C)C` [DEVD-CHO], for which the concentration for half-maximal inhibition (IC50) stood at 26.5 nM on Caspase 6 (read-out: Compound IC50) and 5.11 nM at Caspase 7.

In assay [1], “RPSFCNLPVAPGPCNGFFSAFYYSQKTNKCHSFTYGGCKGNANRFSTLEKCRRTCVG (disulfide 5-55, 14-38, 30-51) [K10A]” had a Ki of 9.38 nM.

Turning to `Cc1ccccc1C(=O)Nc1ccc(C(=O)N2CCCC(O)c3cc(Cl)ccc32)c(C)c1` (stereo not drawn) [tolvaptan], the “plasmatic sodium concentration versus vehicle-treated group” value in assay [4] was “significantly different from values on the vehicle-treated group”.

Consider “RPSFCNLPVKPGPCNGFFSAFYYSQKTNKCHSFTYGGCKGNANAFSTLEKCRRTCVG (disulfide 5-55, 14-38, 30-51) [R44A]”, for which the affinity in assay [1], expressed as Ki, was 13.3 nM. This lies in the double-digit nanomolar range.

“RPSFCNLPVKPGPCNGFFSAFYYSQKTNKCHSFTYGGCKGNANEFSTLEKCRRTCVG (disulfide 5-55, 14-38, 30-51) [R44E]”: the Ki in [1] turned out to be 99.3 nM. Compared with the last molecule, the Ki is about 7.5-fold higher.

For the molecule “RPSFCNLPVEPGPCNGFFSAFYYSQKTNKCHSFTYGGCKGNANRFSTLEKCRRTCVG (disulfide 5-55, 14-38, 30-51) [K10E]”, the inhibition constant (Ki) in assay [1] was determined as 337 nM.

Broadly, the Ki is a dissociation constant, usually derived from enzyme kinetics or from competition with a known ligand. In general, IC50 refers to the concentration that gives 50% inhibition.
